The numbers were not newly measured in patent publication US12296348B2, “Electrostatic precipitator” (TECHNISCHE UNIVERSITÄT DORTMUND, priority 2019, dated 2025), which cites them from elsewhere.

The conditions of this data set: solubility limited in terms of its bioavailability.

For `COc1ccc2cc([C@H](C)C(=O)O)ccc2c1` [unprocessed naproxen, naproxen], the BCS classification result is recorded as “Class II”.
